pIC50: −log10 of the molar value. Like-named read-outs stand apart in the source and are kept apart here.
What was measured:
human orexin-2 receptor = human orexin-2 receptor (Homo sapiens (Human), UniProt O43614); assay: hOX2R FLIPR Ca2+ flux assay; assay type: cell-based; conditions: CHO cells expressing the human orexin-2 receptor; agonist 70 pM Ala-6,12 orexin-A
Description: In a typical experiment the OX1 and OX2 receptor antagonistic activity of the compounds of the present invention was determined in accordance with the following experimental method. For intracellular calcium measurements, Chinese hamster ovary (CHO) cells expressing the rat orexin-1 receptor or the human orexin-2 receptor, are grown in Iscove's modified DMEM containing 2 mM L-glutamine, […], 1% hypoxanthine-thymidine supplement, 100 U/ml penicillin, 100 μg/ml streptomycin and 10% heat-inactivated fetal calf serum (FCS). The cells are seeded at 20,000 cells/well into Becton-Dickinson black 384-well clear bottom sterile plates coated with poly-D-lysine. All reagents were from GIBCO-Invitrogen Corp. The seeded plates are incubated overnight at 37° C. and 5% CO2. Ala-6,12 human orexin-A as the agonist is prepared as a 1 mM stock solution in 1% bovine serum albumin (BSA) and diluted in assay buffer (HBSS containing 20 mM HEPES, 0.1% BSA and 2.5 mM probenecid, pH7.4) for use in the assay at a final concentration of 70 pM. Test compounds are prepared as 10 mM stock solution in DMSO, then diluted in 384-well plates, first in DMSO, then assay buffer. On the day of the assay, cells are washed 3 times with 100 μl assay buffer and then incubated for 60 min (37° C., 5% CO2) in 60 μl assay buffer containing 1 μM Fluo-4AM ester, 0.02% pluronic acid, and 1% BSA. The dye loading solution is then aspirated and cells are washed 3 times with 100 μl assay buffer. 30 μl of that same buffer is left in each well. Within the Fluorescent Imaging Plate Reader (FLIPR, Molecular Devices), test compounds are added to the plate in a volume of 25 μl, incubated for 5 min and finally 25 μl of agonist is added. Fluorescence is measured for each well at 1 second intervals for 5 minutes and the height of each fluorescence peak is compared to the height of the fluorescence peak induced by 70 pM Ala-6,12 orexin-A with buffer in place of antagonist. For each antagonist, IC50 value (the concentration of compound needed to inhibit 50% of the agonist response) is determined. Alternatively, compound potency can be assessed by a radioligand binding assay (described in Bergman et. al. Bioorg. Med. Chem. Lett. 2008, 18, 1425-1430) in which the inhibition constant (Ki) is determined in membranes prepared from CHO cells expressing either the OX1 or OX2 receptor. The intrinsic orexin receptor antagonist activity of a compound which may be used in the present invention may be determined by these assays.

hOX1R = hOX1R (Homo sapiens, UniProt O43613); assay: hOX1R FLIPR Ca2+ flux assay; assay type: cell-based
[1] = CHO cells expressing orexin-1 receptor, agonist 70 pM Ala-6,12 orexin-A, read-out: hOX1R FLIPR IC50

human orexin-2 receptor, sequence (O43614 whole entry): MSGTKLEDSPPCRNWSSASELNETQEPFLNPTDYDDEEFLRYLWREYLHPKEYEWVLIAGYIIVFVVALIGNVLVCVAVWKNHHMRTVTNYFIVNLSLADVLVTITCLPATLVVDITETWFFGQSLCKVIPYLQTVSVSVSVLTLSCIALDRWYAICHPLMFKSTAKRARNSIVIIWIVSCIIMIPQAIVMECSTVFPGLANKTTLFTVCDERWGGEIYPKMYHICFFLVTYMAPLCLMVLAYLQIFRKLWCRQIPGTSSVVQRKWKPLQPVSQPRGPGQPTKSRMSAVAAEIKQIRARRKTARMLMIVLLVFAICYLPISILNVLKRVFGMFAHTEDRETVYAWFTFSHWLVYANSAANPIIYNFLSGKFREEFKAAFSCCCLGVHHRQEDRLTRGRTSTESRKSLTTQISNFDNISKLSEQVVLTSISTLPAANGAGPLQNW

| SMILES | pIC50 (human orexin-2 receptor) | pIC50 (hOX1R; [1]) | pIC50 (hOX1R) |
| --- | --- | --- | --- |
| COc1c(C#N)ccnc1O[C@@H]1CC[C@@H](CO)N(C(=O)c2cccnc2OCC(F)(F)F)C1 [Example 11, 2-{[(3R,6S)-6-(hydroxymethyl)-1-{[2-(2,2,2-trifluoroethoxy)pyridin-3-yl]carbonyl}piperidin-3-yl]oxy}-3-methoxypyridine-4-carbonitrile] | 8.05 | 5.39 |  |
| N#Cc1ccnc(O[C@@H]2CC[C@@H](CO)N(C(=O)c3ccccc3-n3nccn3)C2)c1 [Example 3, 2-{[(3R,6S)-6-(hydroxymethyl)-1-{[2-(2H-1,2,3-triazol-2-yl)phenyl]carbonyl}piperidin-3-yl]oxy}pyridine-4-carbonitrile] | 7.77 | < 5.00 |  |
| O=C(c1ccccc1-n1nccn1)N1C[C@H](Oc2cc(OCC(F)F)ccn2)CC[C@H]1CO [Example 6, [(2S,5R)-5-{[4-(2,2-difluoroethoxy)pyridin-2-yl]oxy}-1-{[2-(2H-1,2,3-triazol-2-yl)phenyl]carbonyl}piperidin-2-yl]methanol] | 7.22 |  | < 5.00 |
| Cc1c(C#N)ccnc1O[C@@H]1CC[C@@H](CO)N(C(=O)c2ccccc2-n2nccn2)C1 [Example 7, 2-{[(3R,6S)-6-(hydroxymethyl)-1-{[2-(2H-1,2,3-triazol-2-yl)phenyl]carbonyl}piperidin-3-yl]oxy}-3-methylpyridine-4-carbonitrile] | 8.10 | 5.75 |  |
| CCOc1ccccc1C(=O)N1C[C@H](Oc2nccc(C#N)c2OC)CC[C@H]1CO [Example 10, 2-{[(3R,6S)-1-[(2-Ethoxyphenyl)carbonyl]-6-(hydroxymethyl)piperidin-3-yl]oxy}-3-methoxypyridine-4-carbonitrile] | 7.92 | < 5.00 |  |
| Cc1c(C#N)ccnc1O[C@@H]1CC[C@@H](C(C)(C)O)N(C(=O)c2ccccc2-n2nccn2)C1 [Example 16, 2-{[(3R,6S)-6-(1-hydrox-1-methylethyl)-1-{[2-(2H-1,2,3-triazol-2-yl)phenyl]carbonyl}piperidin-3-yl]oxy}-3-methylpyridine-4-carbonitrile] | 7.57 | 5.88 |  |
| Cc1ccnc(O[C@@H]2CC[C@@H](CO)N(C(=O)c3ccccc3-n3nccn3)C2)c1 [Example 5, [(2S,5R)-5-[(4-methylpyridin-2-yl)oxy]-1-{[2-(2H-1,2,3-triazol-2-yl)phenyl]carbonyl}piperidin-2-yl]methanol] | 7.74 | 5.77 |  |
| CC(C)(O)[C@@H]1CC[C@@H](Oc2cc(C#N)ccn2)CN1C(=O)c1ccccc1-n1nccn1 [Example 15, 2-{[(3R,6S)-6-(1-Hydroxy-1-methylethyl)-1-{[2-(2H-1,2,3-triazol-2-yl)phenyl]carbonyl}-piperidin-3-yl]oxy}pyridine-4-carbonitrile] | 7.51 | < 5.00 |  |
| COC(=O)c1c(OC)cccc1O[C@@H]1CC[C@@H](CO)N(C(=O)c2ccccc2-n2nccn2)C1 [Example 1, Methyl 2-{[(3R,6S)-6-(hydroxymethyl)-1-{[2-(2H-1,2,3-triazol-2-yl)phenyl]carbonyl}-piperidin-3-yl]oxy}-6-methoxybenzoate] | 6.70 | < 5.00 |  |
| CC1(C)OC(=O)c2c1ccnc2O[C@@H]1CC[C@@H](CO)N(C(=O)c2ccccc2-n2nccn2)C1 [Example 2, 4-{[(3R,6S)-6-(Hydroxymethyl)-1-{[2-(2H-1,2,3-triazol-2-yl)phenyl]carbonyl}piperidin-3-yl]oxy}-1,1-dimethylfuro[3,4-c]pyridin-3(1H)-one] | 7.68 | < 5.00 |  |
| COC(=O)c1c(C#N)cccc1O[C@@H]1CC[C@@H](CO)N(C(=O)c2ccccc2-n2nccn2)C1 [Example 4, methyl 2-cyano-6-{[(3R,6S)-6-(hydroxymethyl)-1-{[2-(2H-1,2,3-triazol-2-yl)phenyl]carbonyl}piperidin-3-yl]oxy} benzoate] | 7.31 | < 5.00 |  |
| COc1c(C#N)ccnc1O[C@@H]1CC[C@@H](CO)N(C(=O)c2cccnc2OC(C)C)C1 [Example 12, 2-{[(3R,6S)-6-(hydroxymethyl)-1-{[2-(1-methylethoxy)pyridin-3-yl]carbonyl}piperidin-3-yl]oxy}-3-methoxypyridine-4-carbonitrile] | 7.57 | < 5.00 |  |
| COc1c(C#N)ccnc1O[C@@H]1CC[C@@H](CO)N(C(=O)c2ccccc2OC(F)F)C1 [Example 13, 2-{[(3R,6S)-1-{[2-(difluoromethoxy)phenyl]carbonyl}-6-(hydroxymethyl)piperidin-3-yl]oxy}-3-methoxypyridine-4-carbonitrile] | 7.41 | < 5.00 |  |
| COc1c(C#N)ccnc1O[C@@H]1CC[C@@H](CO)N(C(=O)c2ccccc2OC(F)(F)F)C1 [Example 14, 2-{[(3R,6S)-(hydroxymethyl)-1-{[2-(trifluoromethoxy)phenyl]carbonyl}piperidin-3-yl]oxy}-3-methoxypyridine-4-carbonitrile] | 7.85 | < 5.00 |  |

Reference: patent US10214535B2, “Hydroxmethyl piperidine orexin receptor antagonists” (MERCK SHARP & DOHME CORP., priority 2014, dated 2019)
